# Test system: ob/ob mice
# Assay: Serum ALT and AST in ob/ob mice (animal model for NASH)
# Type: in vivo
# Settings: male ob/ob mice, 100 mg/kg daily oral doses for two weeks, serum
# Method: (§1) Male ob/ob mice were divided into four treatment groups comprising six mice each, and given daily oral doses of Vehicle (1% hydroxypropylmethylcellulose) or 100 mg/kg Compound CT, Compound CV, or Compound BI (a positive control) for two weeks. Blood samples were collected form the retro-orbital sinus and processed for serum chemistry measurements.
# Obese ob/ob mice develop chronic inflammatory fatty liver disease and are considered to be an animal model for nonalcoholic steatohepatitis (NASH), a condition which can lead toward progressive cirrhosis and liver dysfunction. In NASH, fat accumulation increases the susceptibility of the liver to inflammatory injury. One characteristic sign of NASH in patients is, in the absence of viral infection or alcoholism, elevated levels in serum of enzymes that are released from damaged hepatocytes, e.g. alanine aminotransferase (ALT) and Aspartate-aminotransferase (AST). These enzymes are elevated in ob/ob mice as a consequence of fatty liver and secondary inflammation. In Table 3, ALT and AST in serum samples from mice treated with Compound CT, Compound CV, and Compound BI are shown, as are enzyme levels in serum from control ob/ob mice treated only with vehicle. Treatment with Compound CT, Compound CV, and Compound BI reduced serum ALT and AST versus vehicle-treated ob/ob mice.
Compound,ALT ± SD,AST ± SD
"Cc1cccc(C)c1COc1cccc(C(=O)CCC(=O)O)c1 [Compound BI, 4-(3-(2,6-Dimethylbenzyloxy)phenyl)-4-oxobutyric acid, reference compound]",330 ± 40 U/L,217 ± 24 U/L
"Cc1cccc(C)c1COc1cccc(CC(=O)NO)c1 [Compound CT, N-Hydroxy-2-[3-(2,6-dimethylbenzyloxy)phenyl]acetamide]",230 ± 59 U/L,170 ± 23 U/L
"Cc1cccc(C)c1COc1cccc(CC(=O)NCCO)c1 [Compound CV, N-(2-Hydroxyethyl)-2-[3-(2,6-dimethylbenzyloxy)phenyl]acetamide]",484 ± 65 U/L,318 ± 48 U/L

# Same assay, conditions: ob/ob mice, versus vehicle
row,Compound,serum ALT and AST versus vehicle-treated ob/ob mice (in words)
1,"Cc1cccc(C)c1COc1cccc(C(=O)CCC(=O)O)c1 [Compound BI, 4-(3-(2,6-Dimethylbenzyloxy)phenyl)-4-oxobutyric acid, reference compound]",reduced
2,"Cc1cccc(C)c1COc1cccc(CC(=O)NO)c1 [Compound CT, N-Hydroxy-2-[3-(2,6-dimethylbenzyloxy)phenyl]acetamide]",reduced
3,"Cc1cccc(C)c1COc1cccc(CC(=O)NCCO)c1 [Compound CV, N-(2-Hydroxyethyl)-2-[3-(2,6-dimethylbenzyloxy)phenyl]acetamide]",reduced

# Test system: ob/ob mice
# Assay: Serum glucose, triglycerides, free fatty acids and insulin in ob/ob mice
# Type: in vivo
# Settings: male ob/ob mice, 100 mg/kg daily oral doses for two weeks
# Method: Ob/ob mice have a defect in the gene for leptin, a protein involved in appetite regulation and energy metabolism, and are hyperphagic, obese, and insulin resistant. They develop hyperglycemia and fatty liver.
# as §1
Compound,Free Fatty Acids ± SD,Glucose ± SD,Insulin ± SD,Triglycerides ± SD
"Cc1cccc(C)c1COc1cccc(C(=O)CCC(=O)O)c1 [Compound BI, 4-(3-(2,6-Dimethylbenzyloxy)phenyl)-4-oxobutyric acid, reference compound]",874 ± 74 µM,180 ± 19 mg/dL,1.1 ± 0.2 ng/mL,58 ± 2 mg/dL
"Cc1cccc(C)c1COc1cccc(CC(=O)NO)c1 [Compound CT, N-Hydroxy-2-[3-(2,6-dimethylbenzyloxy)phenyl]acetamide]",894 ± 55 µM,131 ± 21 mg/dL,3.1 ± 0.9 ng/mL,68 ± 6 mg/dL
"Cc1cccc(C)c1COc1cccc(CC(=O)NCCO)c1 [Compound CV, N-(2-Hydroxyethyl)-2-[3-(2,6-dimethylbenzyloxy)phenyl]acetamide]",1070 ± 60 µM,164 ± 10 mg/dL,5.0 ± 0.7 ng/mL,73 ± 5 mg/dL
